Results as given in US5202315A, “Cephalosporin compounds” (Lucky, Ltd., priority 1989, dated 1993).
In brackets after ≈: the same amount, converted by molar mass. Like-named read-outs stand apart in the source and are kept apart here.

Legend:
[1] = tested on: Morganella morganii ATCC 8076h; test: Antibacterial activity, MIC; assay type: cell-based; settings: ATCC8076H, agar two-fold dilution, 37° C., 20 hours
Procedure: (§1) Also, the in vitro antibacterial activity was determined by the by a two-fold dilution method as described below:
(§2) That is, the two-fold serial dilutions of the compound were made dispersed in Muller-Hinton agar medium. 2 μl of standard test strain which had the 10^7 CFU per ml was inoculated on the medium, and was incubated at 37° C. for 20 hours.

[2] = tested on: Shigella flexneri ATCC 11836; test: Antibacterial activity, MIC; assay type: cell-based; settings: ATCC11836, agar two-fold dilution, 37° C., 20 hours
Procedure: as §1, §2

[3] = tested on: Salmonella typhimurium ATCC 14028; test: Antibacterial activity, MIC; assay type: cell-based; settings: Salmonella enterica; ATCC 14028; agar two-fold dilution, 37° C., 20 hours; read-out: MIC
Procedure: as §1, §2

[4] = tested on: Staphylococcus epidermidis ATCC 12228; test: Antibacterial activity, MIC; assay type: cell-based; settings: ATCC12228, ATCC 12228, agar two-fold dilution, 37° C., 20 hours, read-out: MIC
Procedure: as §1, §2

[5] = tested on: Streptococcus faecalis ATCC 29212; test: Antibacterial activity, MIC; assay type: cell-based; settings: Enterococcus faecalis, ATCC29212; ATCC 29212; agar two-fold dilution, 37° C., 20 hours; read-out: MIC
Procedure: as §1, §2

[6] = tested on: Escherichia coli ATCC 25922; test: Antibacterial activity, MIC; assay type: cell-based; settings: ATCC25922, agar two-fold dilution, 37° C., 20 hours
Procedure: as §1, §2

[7] = tested on: Enterobacter aerogenes ATCC 29751; test: Antibacterial activity, MIC; assay type: cell-based; settings: Klebsiella aerogenes, ATCC29751; ATCC 29751; agar two-fold dilution, 37° C., 20 hours; read-out: MIC
Procedure: as §1, §2

[8] = tested on: Shigella sonnei ATCC 11060; test: Antibacterial activity, MIC; assay type: cell-based
Procedure: as §1, §2

[9] = tested on: Pseudomonas aeruginosa ATCC 25619; test: Antibacterial activity, MIC; assay type: cell-based; settings: ATCC25619, ATCC 25619, agar two-fold dilution, 37° C., 20 hours, read-out: MIC
Procedure: as §1, §2

[10] = tested on: Staphylococcus aureus ATCC 10537; test: Antibacterial activity, MIC; assay type: cell-based; settings: ATCC10537, ATCC 10537, agar two-fold dilution, 37° C., 20 hours, read-out: MIC
Procedure: as §1, §2

[11] = tested on: Proteus mirabilis ATCC 25933; test: Antibacterial activity, MIC; assay type: cell-based; settings: ATCC25933, ATCC 25933, agar two-fold dilution, 37° C., 20 hours, read-out: MIC
Procedure: as §1, §2

[12] = tested on: Klebsiella pneumoniae ATCC 10031; test: Antibacterial activity, MIC; assay type: cell-based; settings: ATCC10031, ATCC 10031, agar two-fold dilution, 37° C., 20 hours, read-out: MIC
Procedure: as §1, §2

[13] = tested on: Proteus vulgaris ATCC 6059; test: Antibacterial activity, MIC; assay type: cell-based; settings: ATCC6059, ATCC 6059, agar two-fold dilution, 37° C., 20 hours, read-out: MIC
Procedure: as §1, §2

[14] = tested on: Micrococcus luteus ATCC 9341; test: Antibacterial activity, MIC; assay type: cell-based; settings: ATCC9341, ATCC 9341, agar two-fold dilution, 37° C., 20 hours, read-out: MIC
Procedure: as §1, §2

[15] = tested on: Pseudomonas aeruginosa ATCC 10145; test: Antibacterial activity, MIC; assay type: cell-based; settings: ATCC10145, ATCC 10145, agar two-fold dilution, 37° C., 20 hours, read-out: MIC
Procedure: as §1, §2

[16] = tested on: Bacillus cereus ATCC 11778; test: Antibacterial activity, MIC; assay type: cell-based; settings: ATCC11778, ATCC 11778, agar two-fold dilution, 37° C., 20 hours, read-out: MIC
Procedure: as §1, §2

[17] = tested on: Staphylococcus aureus ATCC 6538p; test: Antibacterial activity, MIC; assay type: cell-based; settings: ATCC6538P, ATCC 6538p, agar two-fold dilution, 37° C., 20 hours, read-out: MIC
Procedure: as §1, §2

[18] = tested on: Enterobacter cloacae ATCC 27508; test: Antibacterial activity, MIC; assay type: cell-based; settings: ATCC27508, ATCC 27508, agar two-fold dilution, 37° C., 20 hours, read-out: MIC
Procedure: as §1, §2

[19] = tested on: Citrobacter freundii ATCC 8090; test: Antibacterial activity, MIC; assay type: cell-based; settings: ATCC8090, ATCC 8090, agar two-fold dilution, 37° C., 20 hours, read-out: MIC
Procedure: as §1, §2

[20] = tested on: Pseudomonas aeruginosa ATCC 27853; test: Antibacterial activity, MIC; assay type: cell-based; settings: ATCC27853, ATCC 27853, agar two-fold dilution, 37° C., 20 hours, read-out: MIC
Procedure: as §1, §2

[21] = tested on: Acinetobacter calcoaceticus ATCC 15473; test: Antibacterial activity, MIC; assay type: cell-based; settings: ATCC15473, ATCC 15473, agar two-fold dilution, 37° C., 20 hours, read-out: MIC
Procedure: as §1, §2

[22] = tested on: Escherichia coli ATCC 10536; test: Antibacterial activity, MIC; assay type: cell-based; settings: ATCC10536, agar two-fold dilution, 37° C., 20 hours
Procedure: as §1, §2

[23] = tested on: Serratia marcescens ATCC 27117; test: Antibacterial activity, MIC; assay type: cell-based; settings: ATCC27117, ATCC 27117, agar two-fold dilution, 37° C., 20 hours, read-out: MIC
Procedure: as §1, §2

[24] = tested on: Providencia rettgeri ATCC 9250; test: Antibacterial activity, MIC; assay type: cell-based; settings: ATCC9250, agar two-fold dilution, 37° C., 20 hours
Procedure: as §1, §2

[25] = In-vivo absorbency (plasma concentrations & pharmacokinetic parameters); design: species or system SD rat (male); settings: plasma, SD male rat, iv 20 mg/kg, read-out: Plasma Conc.
[26] = as above; design: species or system SD rat (male); settings: plasma, SD male rat, iv 20 mg/kg; for concentration at 1 h: 60 min; for concentration at 1 h / concentration at 2 h: read-out: Plasma Conc.; for concentration at 2 h: 120 min; for AUC / half-life: two compartment model; for half-life: rat, iv, 20 mg/kg
Description: The blood samples from the femoral vein of the rats were taken every hour after administration, and analyzed by bio-assay(agar well method).
Tested animal: SD male Rat (220~340 g)

[27] = tested on: Bacillus megaterium ATCC 9885; test: Antibacterial activity, MIC; assay type: cell-based; settings: Priestia megaterium, ATCC9885; ATCC 9885; agar two-fold dilution, 37° C., 20 hours; read-out: MIC
Procedure: as §1, §2

[28] = ATCC11060, ATCC 11060, agar two-fold dilution, 37° C., 20 hours, read-out: MIC

Compound	MIC [1] [µg/mL]	MIC [2] [µg/mL]	MIC [3] [µg/mL]	MIC [4] [µg/mL]	MIC [6] [µg/mL]	MIC [7] [µg/mL]	MIC [9] [µg/mL]	MIC [10] [µg/mL]	MIC [11] [µg/mL]	MIC [12] [µg/mL]	MIC [13] [µg/mL]	MIC [14] [µg/mL]	MIC [15] [µg/mL]	MIC [16] [µg/mL]	MIC [17] [µg/mL]	MIC [18] [µg/mL]	MIC [19] [µg/mL]	MIC [20] [µg/mL]	MIC [21] [µg/mL]	MIC [22] [µg/mL]	also measured
CCc1c(N)nc(SCC2=C(C(=O)[O-])N3C(=O)C(NC(=O)/C(=N\OC(C)(C)C(=O)O)c4csc(N)n4)C3SC2)[n+](CC)c1N (stereo not shown) [Compound I-33]	≤ 0.008	0.063 (≈ 0.0946 µM)	0.5 (≈ 0.751 µM)	2 (≈ 3 µM)	0.13 (≈ 0.195 µM)	4 (≈ 6.01 µM)	2 (≈ 3 µM)	4 (≈ 6.01 µM)	0.063 (≈ 0.0946 µM)	0.13 (≈ 0.195 µM)	0.13 (≈ 0.195 µM)	0.5 (≈ 0.751 µM)	4 (≈ 6.01 µM)	128 (≈ 192 µM)	4 (≈ 6.01 µM)	0.031 (≈ 0.0466 µM)	0.13 (≈ 0.195 µM)	2 (≈ 3 µM)	16 (≈ 24 µM)	0.13 (≈ 0.195 µM)	MIC [5]: > 128 µg/mL; MIC [8, 28]: 0.25 µg/mL (≈ 0.375 µM); MIC [23]: 0.5 µg/mL (≈ 0.751 µM); MIC [24]: ≤ 0.008 µg/mL; concentration at 0.5 min [25]: 194000 ng/mL; concentration at 2.5 min [25]: 79000 ng/mL; concentration at 5 min [25]: 55000 ng/mL; concentration at 10 min [25]: 36000 ng/mL; concentration at 20 min [25]: 21000 ng/mL; concentration at 40 min [25]: 13000 ng/mL; concentration at 1 h [26]: 7000 ng/mL; concentration at 2 h [26]: 1200 ng/mL; AUC [26]: 30500 ng·h/mL; half-life ([26]; read-out: T1/2 (α)): 2 min; half-life ([26]; read-out: T1/2 (β)): 24 min
CCO/N=C(\C(=O)NC1C(=O)N2C(C(=O)[O-])=C(CSc3nc(N)cc(N)[n+]3C)CSC12)c1csc(N)n1 (stereo not shown) [Compound I-11]	≤ 0.008	0.031 (≈ 0.0548 µM)	0.25 (≈ 0.442 µM)	0.063 (≈ 0.111 µM)	0.13 (≈ 0.23 µM)	0.5 (≈ 0.884 µM)	2 (≈ 3.54 µM)	0.25 (≈ 0.442 µM)	0.25 (≈ 0.442 µM)	0.016 (≈ 0.0283 µM)	0.25 (≈ 0.442 µM)	0.016 (≈ 0.0283 µM)	8 (≈ 14.1 µM)	32 (≈ 56.6 µM)	0.25 (≈ 0.442 µM)	≤ 0.008	0.063 (≈ 0.111 µM)	4 (≈ 7.07 µM)	4 (≈ 7.07 µM)	0.13 (≈ 0.23 µM)	MIC ([8]; ATCC11060, 20 h): 0.13 µg/mL (≈ 0.23 µM); MIC [27]: 0.13 µg/mL (≈ 0.23 µM); MIC [23]: 0.13 µg/mL (≈ 0.23 µM); MIC [24]: ≤ 0.008 µg/mL
Cc1c(N)nc(SCC2=C(C(=O)[O-])N3C(=O)C(NC(=O)/C(=N\OC(C)(C)C(=O)O)c4csc(N)n4)C3SC2)[n+](N)c1N (stereo not shown) [Compound I-34]	≤ 0.008	0.031 (≈ 0.0485 µM)	0.13 (≈ 0.204 µM)	2 (≈ 3.13 µM)	0.13 (≈ 0.204 µM)	1 (≈ 1.57 µM)	2 (≈ 3.13 µM)	2 (≈ 3.13 µM)	0.031 (≈ 0.0485 µM)	0.063 (≈ 0.0986 µM)	0.063 (≈ 0.0986 µM)	0.5 (≈ 0.783 µM)	2 (≈ 3.13 µM)	128 (≈ 200 µM)	4 (≈ 6.26 µM)	0.016 (≈ 0.0251 µM)	0.063 (≈ 0.0986 µM)	2 (≈ 3.13 µM)	4 (≈ 6.26 µM)	0.063 (≈ 0.0986 µM)	MIC [5]: > 128 µg/mL; MIC [8, 28]: 0.063 µg/mL (≈ 0.0986 µM); MIC [23]: 0.13 µg/mL (≈ 0.204 µM); MIC [24]: ≤ 0.008 µg/mL; concentration at 0.5 min [25]: 181000 ng/mL; concentration at 2.5 min [25]: 89000 ng/mL; concentration at 5 min [25]: 68000 ng/mL; concentration at 10 min [25]: 47000 ng/mL; concentration at 20 min [25]: 31000 ng/mL; concentration at 40 min [25]: 15000 ng/mL; concentration at 1 h [26]: 7800 ng/mL; concentration at 2 h [26]: 1200 ng/mL; AUC [26]: 37200 ng·h/mL; half-life ([26]; read-out: T1/2 (α)): 1 min; half-life ([26]; read-out: T1/2 (β)): 21 min
